Each structure is given as a SMILES string.

Data on two compounds can be found in article PMC8695447, “Novel Small Molecules Capable of Blocking mtRAS-Signaling Pathway” (Frontiers in Oncology, 2021).

Common to all, as to format: cell-based
Assay [1] has as its system phospho-70S6K1, -JNK, -p38 in Ba/F3-NRAS-G12D and OCI-AML cells. Kind of assay: Western blot, ACK1 and GCK downstream signaling (phospho-70S6K1, -JNK, -p38). The conditions noted are these: 0.1, 1, 10 μM for 2 h. The procedure:
Approximately 1 × 10^6 cells per well were seeded in a 6-well cell culture plate. After cell adhesion, each compounds were treated for 2 h with indicated concentration and conducted brief washing twice by ice-cold PBS. Cells were lysed by NP40 buffer (50 mM Tris–HCl pH 7.4, 1% NP40, 2 mM EDTA, 150 mM NaCl) in the presence of protease inhibitor cocktail (Roche, #11873580001) and phosphatase inhibitor cocktail (Roche, #04906837001). Each sample was loaded with same amount of total protein and separated by SDS-PAGE gel. After transferred to nitrocellulose membrane, blocking with 5% skim milk (in TBS/T) was followed. The membrane was incubated 4°C for overnight with uniformly diluted primary antibodies at 1:1,000 (v/v) in TBS/T. The following primary antibodies were used: anti-p-AKT (Cell Signaling, #9271), anti-p-ERK1/2 (Cell Signaling, #4370), anti-PARP (Cell Signaling, #9542), anti-GAPDH (Cell Signaling, #5174), anti-p-70S6K1 (Cell Signaling, #9204), anti-p-JNK(Cell Signaling, #9251), anti-p-p38 (Cell Signaling, #9216), and anti-p-MEK1/2 (Santa Cruz, sc-81503). […] Chemiluminescence signals were detected by ImageQuant™ LAS 4000 (GE Healthcare). […]
Background: A western blot detects proteins with antibodies after separation by electrophoresis.

Another assay concerns HCT-116 (KRAS-G13D). The experiment in a line: Anti-proliferation assay on HCT-116. The conditions noted are these: Homo sapiens, HCT-116; 72 h treatment; average with SD (n = 3, duplicate). The method, then:
(§1) Ba/F3-parental, OCI-AML3, U397 cells were purchased from DSMZ. MDA-MB-231, HCT-116, AsPC-1, H358, HT-29, SW480, and DU-145 cells were obtained from KCLB. MDA-MB-468 cells were obtained from ATCC. All cells were maintained in RPMI with 10% FBS and antibiotics. Cells were grown in a humidified 5% CO2 incubator at 37°C. Ba/F3-parental cells were grown in the presence of 10 ng/ml IL-3. NRAS-G12D or NRAS-G12V transformed Ba/F3 cell lines (Ba/F3-NRAS-G12D, and Ba/F3-NRAS-G12V, respectively) were cultured without IL-3, which were established by the procedure described as previously ([30]).
(§2) Approximately 3.0 × 10^3 cells/well were seeded in a 96-well cell culture plate. After stabilization, 1/3 serially diluted compound in DMSO was treated to the cell. […] All GI50 values were obtained in duplicate with three independent assays and averages with standard deviation are presented.

Assay [2] deals with phospho-AKT, -MEK, -ERK in Ba/F3-NRAS-G12D and Ba/F3-NRAS-G12V cells. Kind of assay: Western blot, phospho-AKT, -MEK, -ERK in Ba/F3 cells transformed with mtRAS. The conditions noted are these: 2 h; for inhibitory capabilities on phosphorylation level of MEK, ERK, and AKT at 1 µM relative to GNF-7: Ba/F3 mtRAS cells; for phospho-AKT, -MEK, -ERK levels at 10 µM: Ba/F3 cells transformed with mtRAS (NRAS-G12D and NRAS-G12V). The procedure: Approximately 1 × 10^6 cells per well were seeded in a 6-well cell culture plate. After cell adhesion, each compounds were treated for 2 h with indicated concentration and conducted brief washing twice by ice-cold PBS. Cells were lysed by NP40 buffer (50 mM Tris–HCl pH 7.4, 1% NP40, 2 mM EDTA, 150 mM NaCl) in the presence of protease inhibitor cocktail (Roche, #11873580001) and phosphatase inhibitor cocktail (Roche, #04906837001). Each sample was loaded with same amount of total protein and separated by SDS-PAGE gel. After transferred to nitrocellulose membrane, blocking with 5% skim milk (in TBS/T) was followed. The membrane was incubated 4°C for overnight with uniformly diluted primary antibodies at 1:1,000 (v/v) in TBS/T. The following primary antibodies were used: anti-p-AKT (Cell Signaling, #9271), anti-p-ERK1/2 (Cell Signaling, #4370), anti-PARP (Cell Signaling, #9542), anti-GAPDH (Cell Signaling, #5174), anti-p-70S6K1 (Cell Signaling, #9204), anti-p-JNK(Cell Signaling, #9251), anti-p-p38 (Cell Signaling, #9216), and anti-p-MEK1/2 (Santa Cruz, sc-81503). Each membrane was incubated with HRP-conjugated goat anti-Rabbit secondary antibody (Gendepot, SA002-500) or HRP-conjugated goat anti-Mouse secondary antibody (Gendepot, SA001-500) for 1 h (1:10,000, v/v) in TBS/T at room temperature and followed ECL solution treatment. Chemiluminescence signals were detected by ImageQuant™ LAS 4000 (GE Healthcare).
Figure 1 The effects of (A) SIJ1795 and (B) SIJ1772 on MAPK and PI3K/AKT signaling pathways in Ba/F3 cells transformed with mtRAS (NRAS-G12D and NRAS-G12V). Cells were treated with 0.1, 1, and 10 μM of SIJ1795, SIJ1772, and GNF-7 for 2 h. Western blot analysis was conducted to evaluate the phospho-AKT, -MEK, -ERK levels. GAPDH was used as the loading control.

A further assay has as its system SW480 (KRAS-G12V). Kind of assay: Anti-proliferation assay on SW480. The following applies: Homo sapiens, SW480; 72 h treatment; average with SD (n = 3, duplicate). The procedure:
as §1, §2

Assay [3] relates to cancer cells with mtRAS including H358, AsPC-1, DU-145, SW480, and MDA-MB-231. Kind of assay: Invasion assay (Boyden chamber assay). The conditions noted are these: 0.01 µM, 48 h. The procedure:
For invasion assay, Boyden chamber assay carried out. Transwell insert was precoated with matrigel (Corning, #354248). Cells were seeded in the transwell chamber insert (8 μm pore size) at a density of 5.0 × 10^5 cells/well after serum starvation for overnight. The cells were incubated with 0.01 μM concentration of each compounds of for 48 h at 37°C. The non-invaded cells were eliminated. Crystal violet solution was used to staining the invaded cells. Cells were observed and photographed with 100× magnification. Stained cells were automatically counted and quantified (n = 3).
Figure 6 The effects of SIJ1795 and SIJ1772 on migration and invasion activities of cancer cells harboring mtRAS. (A) Scratch assay result for cell migration ability determination. Each cell monolayers were scratched and incubated with test compounds at 0.01 μM. After 8 h (MDA-MB-231) or 24 h (DU-145, SW480, HCT-116) or 48 h (AsPC-1) or 72 h (HT-29), cells were stained with crystal violet. Migrated areas were photographed with 40× magnification. Migrated area was determined by ImageJ (n = 3). (B) Boyden chamber assay result for cell invasion ability determination. […] Stained cells were counted by ImageJ (n = 3). Statistical significance was determined using a one-way ANOVA analysis (*p < 0.05, **p < 0.01, ***p < 0.001, ****p < 0.0001).

For assay [4] the test system is unchanged. Kind of assay: Migration assay (scratch assay). The following applies: 0.01 µM. The procedure:
For migration assay, scratch assay was conducted. Each cells (2.0 × 10^5 cells/well) were seeded in 24-well plates. After cellular attachment, cells were scratched with a SPLScarTM Scratcher (SPL Life Sciences, #201924) and the detached cells were removed by PBS washing twice. Cells were incubated in complete media with 0.01 μM concentrations of each compounds for indicated time. The images were acquired before and after incubation with compounds (40× magnification), and percent of migration were accessed using ImageJ (n = 3).
Figure 6 The effects of SIJ1795 and SIJ1772 on migration and invasion activities of cancer cells harboring mtRAS. (A) Scratch assay result for cell migration ability determination. Each cell monolayers were scratched and incubated with test compounds at 0.01 μM. After 8 h (MDA-MB-231) or 24 h (DU-145, SW480, HCT-116) or 48 h (AsPC-1) or 72 h (HT-29), cells were stained with crystal violet. Migrated areas were photographed with 40× magnification. Migrated area was determined by ImageJ (n = 3). (B) Boyden chamber assay result for cell invasion ability determination. Indicated compounds of 0.01 μM were treated and incubated for 48 h Invaded cells were stained by crystal violet and photographed. Stained cells were counted by ImageJ (n = 3). Statistical significance was determined using a one-way ANOVA analysis (*p < 0.05, **p < 0.01, ***p < 0.001, ****p < 0.0001).

The subject of the next assay is HT-29 (KRAS-Q61L). Kind of assay: Anti-proliferation assay on HT-29. The following applies: Homo sapiens, HT-29; 72 h treatment; average with SD (n = 3, duplicate). The procedure:
as §1, §2

Regarding `Cc1ccc(NC(=O)c2cccc(C(F)(F)F)c2)cc1N1Cc2cnc(Nc3cnn(C4CCN(S(C)(=O)=O)CC4)c3)nc2N(C)C1=O` [SIJ1772, N-(4-Methyl-3-(1-methyl-7-((1-(1-(methylsulfonyl)piperidin-4-yl)-1H-pyrazol-4-yl)amino)-2-oxo-1,4-dihydropyrimido[4,5-d]pyrimidin-3(2H)-yl)phenyl)-3-(trifluoromethyl)benzamide], in assay [1], the “phosphorylation of 70S6K1 (downstream molecule of ACK), JNK, p38 (downstream molecule of GCK)” value is recorded as “effectively inhibited”. Moreover, the GI50 worked out at 0.038 ± 0.028 µM in the assay with HCT-116 (KRAS-G13D), 0.447 ± 0.173 µM with SW480 (KRAS-G12V) and 0.192 ± 0.094 µM with HT-29 (KRAS-Q61L). Besides, the “inhibitory capabilities on phosphorylation level of MEK, ERK, and AKT at 1 µM relative to GNF-7” value in assay [2] is “slightly increased relative to that of GNF-7”. Moreover, the “phospho-AKT, -MEK, -ERK levels at 10 µM” value in assay [2] is reported as “completely inhibited”. For the same compound, the “reduction in invasion capabilities” value in assay [3] is “over 50%”. For the same compound, the “reduction in migration capabilities” value in assay [4] is “over 50%”.
For the compound `CCN1CCN(c2cccc(Nc3ncc4c(n3)N(C)C(=O)N(c3cc(NC(=O)c5cccc(C(F)(F)F)c5)ccc3C)C4)c2)CC1` [SIJ1795, N-(3-(7-((3-(4-Ethylpiperazin-1-yl)phenyl)amino)-1-methyl-2-oxo-1,4-dihydropyrimido[4,5-d]pyrimidin-3(2H)-yl)-4-methylphenyl)-3-(trifluoromethyl)benzamide], the “phosphorylation of 70S6K1 (downstream molecule of ACK), JNK, p38 (downstream molecule of GCK)” value in assay [1] was “effectively inhibited”. Further, the GI50 stood at 0.033 ± 0.006 µM in the assay on HCT-116 (KRAS-G13D), 0.245 ± 0.012 µM in the assay with SW480 (KRAS-G12V) and 0.154 ± 0.042 µM with HT-29 (KRAS-Q61L). In addition, the “inhibitory capabilities on phosphorylation level of MEK, ERK, and AKT at 1 µM relative to GNF-7” value in assay [2] was “slightly increased relative to that of GNF-7”. The “phospho-AKT, -MEK, -ERK levels at 10 µM” value in assay [2] is given as “completely inhibited”. Also, in assay [3], the “reduction in invasion capabilities” value is “over 50%”. For the same compound, the “reduction in migration capabilities” value in assay [4] is “over 50%”.

The term GI50 denotes the concentration giving 50% growth inhibition.
